# According to patent publication US4209527A, “Benzimidazolone derivatives” (Pfizer Inc., priority 1979, dated 1980):
# Structures can show the parent of a compound that is named as a salt.
# Experiments:
# [1] = target: T1, aldose reductase (Bos taurus, UniProt P16116); test: inhibition of aldose reductase enzyme activity (procedure of S. Hayman et al., modified by K. Sestanj et al.); type: biochemical; details: 10^-4 M; partially purified enzyme from calf lens
# T1 construct: partially purified aldose reductase enzyme obtained from calf lens; from tissue; host or cells: calf lens
# Description: The activity of the compounds of the present invention, as agents for the control of chronic diabetic complications, is determined by their ability to successfully pass one or more of the following standard biological and/or pharmacological tests, viz., (1) measuring their ability to inhibit the enzyme activity of isolated aldose reductase; (2) measuring their ability to reduce or inhibit sorbitol accumulation in the sciatic nerve of acutely streptozotocinized (i.e., diabetic) rats; (3) measuring their ability to reverse already-elevated sorbitol levels in the sciatic nerve and lens of chronic streptozotocin-induced diabetic rats; (4) measuring their ability to prevent or inhibit galactitol formation in the lens of acutely galactosemic rats and (5) measuring their ability to delay cataract formation and reduce the severity of lens opacities in chronic galactosemic rats.
# The following 3-(substituted methyl)-2-oxo-1-benzimidazolinealkanoic acid final products of Examples 15-24 and 26-28, respectively, were tested at a concentration level of 10^-4 M for their ability to reduce or inhibit aldose reductase enzyme activity via the procedure of S. Hayman et al., as described in the Journal of Biological Chemistry, Vol. 240, p. 877 (1965) and as modified by K. Sestanj et al. in U.S. Pat. No. 3,821,383. In every case, the substrate employed was partially purified aldose reductase enzyme obtained from calf lens.
# [2] = toxic side effects / untoward pharmacological side reactions; type: in vivo, rat; details: diabetic rats, oral, 2.5 mg./kg. to 25 mg./kg.
# Description: As previously indicated, the 3-(substituted methyl)-2-oxo-1-benzimidazolinealkanoic acid final products of this invention are all readily adapted to therapeutic use as aldose reductase inhibitors for the control of chronic diabetic complications, in view of their ability to reduce lens sorbitol levels in diabetic subjects to a statistically significant degree. […] Furthermore, the herein described compounds of this invention can be administered by either the oral or parenteral routes of administration, for the present purposes at hand, without causing any significant untoward pharmacological side reactions to occur in the subject to whom they are so administered. In general, these compounds are ordinarily administered in dosages ranging from about 0.25 mg. to about 25 mg. per kg. of body weight per day, although variations will necessarily occur depending upon the weight and condition of the subject being treated and the particular route of administration chosen.
# [3] = solubility in water; type: physicochemical; details: amorphous powder, freeze-dried
# Description: The sodium salt of 3-benzyl-2-oxo-1-benzimidazolineacetic acid is prepared by dissolving said compound in water containing an equivalent amount in moles of sodium hydroxide and then freeze-drying the mixture.
smiles,measurement,setting,value
"O=C(O)Cn1c(=O)n(Cc2ccccc2)c2ccccc21 [Example 15, 3-benzyl-2-oxo-1-benzimidazolineacetic acid]",inhibition at 100 µM,[1],84%
same,signs of toxic side effects,[2],without showing any substantial signs of toxic side effects
"Cc1ccc(Cn2c(=O)n(CC(=O)O)c3ccccc32)cc1 [Example 16, 3-(p-xylyl)-2-oxo-1-benzimidazolineacetic acid]",inhibition at 100 µM,[1],86%
"O=C(O)Cn1c(=O)n(Cc2ccc(Cl)cc2)c2ccccc21 [Example 17, 3-(p-chlorobenzyl)-2-oxo-1-benzimidazolineacetic acid]",inhibition at 100 µM,[1],88%
"COc1ccc(Cn2c(=O)n(CC(=O)O)c3ccccc32)cc1 [Example 18, 3-(p-methoxybenzyl)-2-oxo-1-benzimidazolineacetic acid]",inhibition at 100 µM,[1],88%
"O=C(O)Cn1c(=O)n(Cc2ccc(Cl)c(Cl)c2)c2ccccc21 [Example 19, 3-(3,4-dichlorobenzyl)-2-oxo-1-benzimidazolineacetic acid]",inhibition at 100 µM,[1],89%
"O=C(O)Cn1c(=O)n(Cc2ccc(Cl)cc2Cl)c2ccccc21 [Example 20, 3-(2,4-dichlorobenzyl)-2-oxo-1-benzimidazolelineacetic acid]",inhibition at 100 µM,[1],87%
"O=C(O)Cn1c(=O)n(Cc2cccc3ccccc23)c2ccccc21 [Example 21, 3-(α-naphthyl)methyl-2-oxo-1-benzimidazolineacetic acid]",inhibition at 100 µM,[1],92%
"O=C(O)Cn1c(=O)n(Cc2ccc3ccccc3c2)c2ccccc21 [Example 22, 3-(β-naphthyl)methyl-2-oxo-1-benzimidazolineacetic acid]",inhibition at 100 µM,[1],86%
"O=C(O)Cn1c(=O)n(CC(=O)c2ccc(Cl)cc2Cl)c2ccccc21 [Example 23, 3-(2,4-dichlorobenzoylmethyl)-2-oxo-1-benzimidazolineacetic acid]",inhibition at 100 µM,[1],71%
"O=C(O)Cn1c(=O)n(Cc2ccccc2)c2cc(Cl)c(Cl)cc21 [Example 24, 3-benzyl-5,6-dichloro-2-oxo-1-benzimidazolineacetic acid]",inhibition at 100 µM,[1],89%
"O=C(O)Cn1c(=O)n(Cc2ccc(Cl)c(Cl)c2)c2cc(Cl)c(Cl)cc21 [Example 26, 3-(3,4-dichlorobenzyl)-5,6-dichloro-2-oxo-1-benzimidazolineacetic acid]",inhibition at 100 µM,[1],82%
"CC(C(=O)O)n1c(=O)n(Cc2ccc(Cl)c(Cl)c2)c2ccccc21 (stereo not drawn) [Example 27, α-[3-(3,4-dichlorobenzyl)-2-oxo-1-benzimidazoline]propionic acid]",inhibition at 100 µM,[1],91%
"O=C(O)CCn1c(=O)n(Cc2ccc(Cl)c(Cl)c2)c2ccccc21 [Example 28, β-[3-(3,4-dichlorobenzyl)-2-oxo-1-benzimidazoline]propionic acid]",inhibition at 100 µM,[1],90%
"O=C(O)Cn1c(=O)n(Cc2ccccc2)c2ccccc21 [Example 35, sodium salt of 3-benzyl-2-oxo-1-benzimidazolineacetic acid]",solubility in water,[3],freely-soluble in water
